Measurements from article PMC12042122, “The GntR/VanR transcription regulator AlkR represses AlkB2 monooxygenase expression and regulates n‐alkane degradation in Pseudomonas aeruginosa SJTD‐1” (mLife, 2025).

Key:
[1] = target: T1, AlkR (Pseudomonas aeruginosa, UniProt Q9I3I7); assay: EMSA, release of AlkR from alkB2 promoter DNA; assay type: binding; details: AlkR 5.8 × 10^-7 M, P3 DNA fragment 5 × 10^-7 M, pH 7.5, 37 °C; not an IC50
T1 construct: gene PA1526
T1 sequence (Q9I3I7 1-219): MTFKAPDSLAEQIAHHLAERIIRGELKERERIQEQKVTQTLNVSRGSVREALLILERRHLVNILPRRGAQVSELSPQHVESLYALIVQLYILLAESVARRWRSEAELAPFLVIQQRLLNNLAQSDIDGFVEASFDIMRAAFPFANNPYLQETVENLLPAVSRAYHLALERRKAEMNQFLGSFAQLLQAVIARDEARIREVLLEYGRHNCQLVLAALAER

[2] = target: AlkR, GntR/VanR transcription regulator of Pseudomonas aeruginosa SJTD-1 (Pseudomonas aeruginosa SJTD-1); assay: cross-linking; purified recombinant AlkR treated with sulfo-EGS, detected by 8% native PAGE
[3] = target: AlkR, GntR/VanR transcription regulator of Pseudomonas aeruginosa SJTD-1 (Pseudomonas aeruginosa SJTD-1); assay: SEC; size exclusion chromatography of purified recombinant AlkR; conditions not given

Molecule | concentration for effective dissociation of the AlkR/DNA complex [1] | stoichiometry N [2] | stoichiometry N [3]
CCCCCCCC/C=C\CCCCCCCC(=O)SCCNC(=O)CCNC(=O)[C@H](O)C(C)(C)COP(=O)(O)OP(=O)(O)OC[C@H]1O[C@@H](n2cnc3c(N)ncnc32)[C@H](O)[C@@H]1OP(=O)(O)O [C18-CoA, oleyl coenzyme A] | ~ 80 μM | – | –
AlkR, GntR/VanR transcription regulator of Pseudomonas aeruginosa SJTD-1 (natural protein) | – | 2 | 2
CCCCCCCCCCCCCCCC(=O)SCCNC(=O)CCNC(=O)[C@H](O)C(C)(C)COP(=O)(O)OP(=O)(O)OC[C@H]1O[C@@H](n2cnc3c(N)ncnc32)[C@H](O)[C@@H]1OP(=O)(O)O [C16-CoA, palmitoyl coenzyme A] | ~ 150 μM | – | –
